Patent US20080207522A1, “Antimicrobial Peptides” (priority 2004, published 2008)

Legend:
[1] = test system: Pseudomonas aeruginosa strain H1001 fliC::luxCDABE; experiment: Luminescence-based assay for the non-cleaved (bound) peptides on cellulose membranes; assay type: cell-based; conditions: for Luminescence at the given time in minutes: 0 / Luminescence at the given time in minutes: 20 / Luminescence at the given time in minutes: 40 / Luminescence at the given time in minutes: 60 / Luminescence at the given time in minutes: 80 / Luminescence at the given time in minutes: 100 / Luminescence at the given time in minutes: 120 / Luminescence at the given time in minutes: 180 / Luminescence at the given time in minutes: 240: cellulose-bound peptide; for Luminescence at the given time in minutes: 0: 0 min; for Luminescence at the given time in minutes: 20: 20 min; for Luminescence at the given time in minutes: 40: 40 min; for Luminescence at the given time in minutes: 60: 60 min; for Luminescence at the given time in minutes: 80: 80 min; for Luminescence at the given time in minutes: 100: 100 min; for Luminescence at the given time in minutes: 120: 120 min; for Luminescence at the given time in minutes: 180: 180 min; for Luminescence at the given time in minutes: 240: 240 min; for Activity Class bound: uncleaved cellulose-bound peptides
Procedure: Luminescence-based MIC assay for the non-cleaved peptides on cellulose membranes. The peptide spots were punched out and transferred to a 96 well microtiter plate with a clear polystyrene bottom and opaque white polypropylene sides (PerkinElmer, Boston, USA). The spots were washed two times with 100% ethanol for 5 min and afterwards equilibrated five times with 100 mM Tris buffer pH 7.3 for 5 min. An overnight culture of Pseudomonas aeruginosa strain H1001 fliC::luxCDABE was diluted 1:50 in new MH medium and incubated at 37° C. to an OD600 of 0.35. This bacterial culture was diluted 1:25 into 10 mM Tris-HCl buffer, pH 7.3 containing 20 mM glucose. Fifty μl of this culture was added to all wells of the microtiter plate and incubated at 37° C. The luminescence of the strain produced by the ATP-dependent luciferase system was detected in a time dependent manner using a Tecan Spectra Fluor plus (Tecan, Austria). At the end of the experiment, the membranes were cleaned by washing the spots two times with 100% ethanol for five minutes. After removing the ethanol the membrane was air-dried.
(§1) Strains. For the killing assay a mini-Tn5-lux mutant in Pseudomonas aeruginosa H103 was used. The strain is called H1001 and contains a fliC::luxCDABE transcriptional fusion resulting in constitutive expression of luciferase. The bacterial strains used for the antimicrobial activity assays included Escherichia coli UB1005 (F-, nalA37, metB1), a wild-type Salmonella enterica ssp. Typhimurium (S. Typhimurium), wild-type Pseudomonas aeruginosa PAO1 strain H103, Enterococcus faecalis ATCC29212, Staphylococcus aureus ATCC25923, and a clinical isolate of Staphylococcus epidermidis obtained from Dr. D. Speert (Department of Medicine, University of British Columbia). Antifungal activity was tested using a lab isolate of Candida albicans obtained from Dr. B. Dill (Department of Microbiology and Immunology, University of British Columbia).
The same set of peptides, as well as the reversed sequence of Bac2A-R ([…]; SEQ ID NO: 2166), were synthesized on cellulose and left uncleaved. The production of light was initially compared in wells containing spots of Bac2A, Bac2A-R (with the reversed sequence of Bac2A), the unrelated negative-control peptide, or, as additional controls, only cellulose, or only bacteria (FIG. 2).
As a control, the negative control (unrelated) peptide Bac429 and parent peptide Bac2A (=Bac001) were used in several different wells of the microtiter plate. Luminescence (relative light units; RLU) was measured at 14 different time points, 9 of which are shown. To permit comparison of the data with the free peptide data set, the result for each peptide was classified into six different groups, like the data set with the free peptides (Table 2). […] For the soluble peptides the following classes were established: […]

[2] = test system: Pseudomonas aeruginosa strain H1001; experiment: Assay for the cleaved (free, soluble) peptides from cellulose support, luminescence killing assay; assay type: cell-based; set-up: key: 1: Peptides showing stronger killing than Bac2A at a 4 to 8-fold higher dilution; Peptides showing stronger killing compared to that of Bac2A at a 4-fold higher dilution; 3: Peptides similar to Bac2A; 4: Peptides similar to Bac2A at the highest concentration but demonstrating weaker killing at a 2-fold dilution; 5: Peptides giving very weak or no killing at a 2-fold dilution; 6: Peptides with weak killing activity at the highest concentration; conditions: free (cleaved) peptides, killing relative to Bac2A
Procedure: Assay for the cleaved peptides from cellulose support. The peptides were cleaved from the dried membrane in an ammonia atmosphere overnight, resulting in free peptides with an amidated C-terminus. The free peptides contained two β-alanines at the C-terminus, in addition to being amidated due to the linker between the cellulose membrane and the peptide sequence. The peptide spots were punched out and transferred in a 96-well microtiter plate. Serial dilutions were carried out from the membrane spots. Four rows were filled with four controls including two with Bac2A and two with of an unrelated peptide. The other eight rows were used for serial dilution steps of the peptide variants. An overnight culture of Pseudomonas aeruginosa strain H1001 was diluted 1:500 using either LB media or 100 mM Tris buffer pH 7.3, 20 mM glucose and was added to the wells (100 μl/well) containing the peptide spots. In all other wells 50 μl were added. The microtiter plate was incubated for 30 min at 37° C. to release the peptides from the membrane. Subsequently, a dilution series were performed and the plate was incubated at 37° C. The luminescence produced by the ATP dependent luciferase system were detected in a time dependent manner using a Tecan Spectra Fluor plus.
as §1
Peptide synthesis on cellulose is a very effective and inexpensive way to investigate many different peptide variants for one particular activity. However, one of the problems of this technique is the low peptide density synthesized on the membrane, about 280 nmol per cm2. An average peptide spot used for the experiments presented is about 0.3 cm2. Therefore, an assay had to be developed that was sensitive enough to show activity with this amount of peptides. P. aeruginosa H1001 has a reporter system (e.g., a luciferase gene cassette) incorporated into the bacterial chromosome in the fliC gene (involved in flagellar biosynthesis) that is constitutively expressed. It will thus produce light if ATP is present. When this strain is killed, e.g. by peptides, the amount of light produced will decrease due to a decrease in ATP levels in the killed cells. This action can thus be monitored by detecting luminescence in a microtiter plate luminescence reader over time. The volume and amount of cells per well were optimized for this assay. After screening, the killing action was monitored with small amounts of the parent peptide Bac2A (2 μg/ml of free peptide).
Forty-nine scrambled peptides (Bac002-Bac050) were synthesized on the cellulose support and then cleaved by ammonia gas resulting in free peptides with an amidated C-terminus including the linker. The peptide spots were transferred to a 96-well microtiter plate and incubated for 30 min to dissociate the peptides from the cellulose. After serial dilution and addition of strain H1001, luminescence was recorded in a time dependent manner (FIG. 1). All 50 scrambled peptides were compared to Bac2A ([…]-NH2; SEQ ID NO: 1) by this assay (see Table 2). […] Further since all scrambled peptides had some activity, a sequence-specific interaction of the peptides with a receptor or target could be excluded.

Sequence | Luminescence at the given time in minutes: 0 [1] [RLU] | Luminescence at the given time in minutes: 20 [1] [RLU] | Luminescence at the given time in minutes: 40 [1] [RLU] | Luminescence at the given time in minutes: 60 [1] [RLU] | Luminescence at the given time in minutes: 80 [1] [RLU] | Luminescence at the given time in minutes: 100 [1] [RLU] | Luminescence at the given time in minutes: 120 [1] [RLU] | Luminescence at the given time in minutes: 180 [1] [RLU] | Luminescence at the given time in minutes: 240 [1] [RLU] | Activity Class bound [1] | Activity Class Soluble [2]
ARRARIRILVVV [Bac032] | 4649 | 6342 | 4584 | 2088 | 595 | 148 | 107 | 54 | 33 | 3 (Peptides similar to Bac2A resulting in lux values of less than 500 after 240 min.) | 4
AAVRRRVRLVII [Bac010] | 4380 | 6719 | 4170 | 1628 | 562 | 129 | 121 | 99 | 56 | 3 (Peptides similar to Bac2A resulting in lux values of less than 500 after 240 min.) | 1
RAIIRRVLVRVA [Bac024] | 4164 | 7630 | 5586 | 4358 | 3256 | 2398 | 1727 | 1384 | 1373 | 4 (Peptides reducing luminescence (lux) values to between 500 to 1499 after 240 min.) | 4
RRVIAIAVRRLV [Bac050] | 4803 | 6715 | 5157 | 4430 | 3915 | 3428 | 3246 | 3206 | 3590 | 6 (Peptides having residual luminescence (lux) values greater than 3000 after 240 min.) | 3
IRVRRLVAAVIR [Bac033] | 4795 | 6539 | 4785 | 4155 | 3565 | 3095 | 2639 | 2613 | 2962 | 5 (Peptides reducing luminescence (lux) values to between 1500 to 3000 after 240 min.) | 5
VVRALRRIIARV [Bac048] | 5001 | 6505 | 5163 | 4406 | 3824 | 3470 | 3423 | 3268 | 3694 | 6 (Peptides having residual luminescence (lux) values greater than 3000 after 240 min.) | 4
RRLVAIVAVRRI [Bac007] | 3943 | 7157 | 4403 | 2010 | 679 | 205 | 90 | 89 | 79 | 3 (Peptides similar to Bac2A resulting in lux values of less than 500 after 240 min.) | 4
IAARRLIRVVRV [Bac012] | 4045 | 7171 | 5701 | 5037 | 4631 | 4418 | 4182 | 4344 | 5087 | 6 (Peptides having residual luminescence (lux) values greater than 3000 after 240 min.) | 3
ILVARVIRRRVA [Bac019] | 5239 | 7569 | 5731 | 4741 | 3822 | 3000 | 2373 | 1908 | 1570 | 5 (Peptides reducing luminescence (lux) values to between 1500 to 3000 after 240 min.) | 5
ARAILIRVVRRV [Bac025] | 4354 | 6728 | 3660 | 1127 | 343 | 113 | 115 | 114 | 80 | 3 (Peptides similar to Bac2A resulting in lux values of less than 500 after 240 min.) | 3
